Data reported in ChEMBL document CHEMBL3868619, “Synthesis and biological assessment of novel N-(hydroxy/methoxy)alkyl β-enaminone curcuminoids” (Bioorg Med Chem Lett, 2016).
pEC50, pIC50: −log10 of the molar value. Converted amounts (≈) assume the structure as drawn.

Key:
[1] = Aqueous solubility of the compound in sodium phosphate buffer at pH 6.8 after 90 mins by shake flask method; assay type: physicochemical
[2] = Aqueous solubility of the compound in sodium phosphate buffer at pH 6.8 after 24 hrs by shake flask method; assay type: physicochemical
[3] = Antioxidant activity assessed as DPPH radical scavenging activity after 30 mins by spectrophotometric analysis; assay type: functional
[4] = Cytotoxicity against human Caco2 cells assessed as decrease in cell viability after 48 hrs by MTT assay; assay type: functional, cell-based; conditions: Caco-2, 48 h
[5] = Cytotoxicity against human HepG2 cells assessed as decrease in cell viability after 48 hrs by MTT assay; assay type: functional, cell-based; conditions: HepG2, 48 h
[6] = Cytotoxicity against human HT-29 cells assessed as decrease in cell viability after 48 hrs by MTT assay; assay type: functional, cell-based; conditions: HT-29, 48 h
[7] = Cytotoxicity against CHOK1 cells assessed as decrease in cell viability after 48 hrs by MTT assay; assay type: toxicity, cell-based, Cricetulus griseus; conditions: Chinese hamster, CHO-K1 cells
[8] = Cytotoxicity against human EAhy926 cells assessed as decrease in cell viability after 48 hrs by MTT assay; assay type: toxicity, cell-based, EA.hy 926; conditions: EA.hy926 cells
Caco-2 [9] = experiment: Induction of ROS generation in human Caco2 cells at 1 uM using DCFH-DA by fluorescence assay relative to control; assay type: functional
Caco-2 [10] = experiment: Induction of ROS generation in human Caco2 cells at 10 uM using DCFH-DA by fluorescence assay relative to control; assay type: functional
HepG2 [11] = experiment: Induction of ROS generation in human HepG2 cells at 1 uM using DCFH-DA by fluorescence assay relative to control; assay type: functional
HepG2 [12] = experiment: Induction of ROS generation in human HepG2 cells at 10 uM using DCFH-DA by fluorescence assay relative to control; assay type: functional
HT-29 [13] = experiment: Induction of ROS generation in human HT-29 cells at 1 uM using DCFH-DA by fluorescence assay relative to control; assay type: functional
HT-29 [14] = experiment: Induction of ROS generation in human HT-29 cells at 10 uM using DCFH-DA by fluorescence assay relative to control; assay type: functional
[15] = Induction of ROS generation in CHOK1 cells at 1 uM using DCFH-DA by fluorescence assay relative to control; assay type: cell-based, Cricetulus griseus; conditions: chinese hamster, cho-k1, 1 µM
[16] = Induction of ROS generation in CHOK1 cells at 10 uM using DCFH-DA by fluorescence assay relative to control; assay type: cell-based, Cricetulus griseus; conditions: chinese hamster, cho-k1, 10 µM
EA.hy 926 [17] = experiment: Induction of ROS generation in human EAhy926 cells at 1 uM using DCFH-DA by fluorescence assay relative to control; assay type: functional
EA.hy 926 [18] = experiment: Induction of ROS generation in human EAhy926 cells at 10 uM using DCFH-DA by fluorescence assay relative to control; assay type: functional
[19] = Chemical stability of the compound sodium phosphate buffer at pH 6.8 after 24 hrs by LC-MS analysis; assay type: physicochemical; conditions: pH 6.8, 24 h

| solubility thermodynamic at 1.5 h [1] [µM] | solubility thermodynamic at 24 h [2] [µM] | pEC50 [3] | Activity [15] [%] | Activity [16] [%] | Stability [19] | SMILES | pIC50 [4] | pIC50 [5] | pIC50 [6] | IC50 at 48 h [7] [µM] | IC50 at 48 h [8] [µM] | Activity (Caco-2 [9]) [%] | Activity (Caco-2 [10]) [%] | Activity (HepG2 [11]) [%] | Activity (HepG2 [12]) [%] | Activity (HT-29 [13]) [%] | Activity (HT-29 [14]) [%] | Activity (EA.hy 926 [17]) [%] | Activity (EA.hy 926 [18]) [%] |
| --- | --- | --- | --- | --- | --- | --- | --- | --- | --- | --- | --- | --- | --- | --- | --- | --- | --- | --- | --- |
| 58.9 (≈ 25.1 µg/mL) | 62.9 (≈ 26.8 µg/mL) | 4.47 | 91.8 | 80.3 | Stable | COc1cc(/C=C/C2=CC(=O)CC(c3ccc(O)c(OC)c3)N2CCCO)ccc1O (stereo unspecified) | 4.06 | < 4.00 | < 4.00 | > 100 | > 100 | 95.6 | 91 | 95.2 | 96.3 | 98.1 | 96.5 | 122 | 123.5 |
| 29.2 (≈ 10.3 µg/mL) | 29.9 (≈ 10.5 µg/mL) | 4.31 | 99.4 | 87.6 | Stable | O=C1C=C(/C=C/c2ccc(O)cc2)N(CCO)C(c2ccc(O)cc2)C1 (stereo unspecified) | < 4.00 | < 4.00 | < 4.00 | > 100 | > 100 | 95.3 | 91.5 | 105.4 | 100.1 | 100.8 | 98.8 | 106.9 | 101.4 |
| 25.8 (≈ 9.8 µg/mL) | 38.8 (≈ 14.7 µg/mL) | < 3.70 | 97.8 | 91.7 | Stable | COCCCN1C(/C=C/c2ccc(O)cc2)=CC(=O)CC1c1ccc(O)cc1 (stereo unspecified) | < 4.00 | < 4.00 | < 4.00 | > 100 | > 100 | 99 | 99.4 | 93.2 | 96.2 | 90.5 | 74.7 | 116.4 | 118.6 |

The remaining lines, values behind:

| SMILES | solubility thermodynamic at 1.5 h [1] [µM] | solubility thermodynamic at 24 h [2] [µM] | pEC50 [3] | Activity [15] [%] | Activity [16] [%] | Stability [19] | pIC50 [4] | pIC50 [5] | pIC50 [6] | IC50 at 48 h [7] [µM] | IC50 at 48 h [8] [µM] | Activity (Caco-2 [9]) [%] | Activity (Caco-2 [10]) [%] | Activity (HepG2 [11]) [%] | Activity (HepG2 [12]) [%] | Activity (HT-29 [13]) [%] | Activity (HT-29 [14]) [%] | Activity (EA.hy 926 [17]) [%] | Activity (EA.hy 926 [18]) [%] |
| --- | --- | --- | --- | --- | --- | --- | --- | --- | --- | --- | --- | --- | --- | --- | --- | --- | --- | --- | --- |
| O=C(/C=C/c1ccc(O)cc1)CC(=O)/C=C/c1ccc(O)cc1 [BISDEMETHOXYCURCUMIN] | 3.18 (≈ 0.98 µg/mL) | 4.3 (≈ 1.33 µg/mL) | < 3.70 | 104.6 | 107.9 | Stable | < 4.00 | < 4.00 | < 4.00 | 91.4 | 54.3 | 100.1 | 88.8 | 88.8 | 69.4 | 101.1 | 95.4 | 95.8 | 104.6 |
| Cc1c(C)c2c(c(C)c1O)CCC(C)(C(=O)O)O2 (stereo unspecified) [TROLOX] |  |  | 4.53 |  |  |  |  |  |  |  |  |  |  |  |  |  |  |  |  |
| COc1cc(/C=C/C(=O)CC(=O)/C=C/c2ccc(O)c(OC)c2)ccc1O [CURCUMIN] | 1.51 (≈ 0.556 µg/mL) | 1.25 (≈ 0.46 µg/mL) | 4.50 | 103.9 | 101 | Stable | 4.42 | 4.14 | 4.29 | 42 | 24.6 | 89.1 | 94.8 | 93.7 | 99.1 | 97.3 | 87.3 | 105.5 | 98.8 |
